Results as given in article PMC6979384, “Characterization of the plant homeodomain (PHD) reader family for their histone tail interactions” (Epigenetics & Chromatin, 2020).

Tests used:
Experiment in all cases: Histone peptide microarray
Type in all cases: binding, human
[1] = system: PHF21A; details: GST-tagged PHF21A; for Array Heatmap signal (histone peptide microarray): sheet Array Heatmap, each array performed twice, total n = 4
Outline: (§1)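 Readout is array binding signal, reported as the mean and standard deviation over four replicates. Each purified GST-fused PHD domain was incubated at 0.5 μM with a library of 293 modified histone peptides.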

[2] = system: ING5; details: GST-tagged ING5; for Array Heatmap signal (histone peptide microarray): sheet Array Heatmap, each array performed twice, total n = 4
Outline: as §1

[3] = system: BAZ2B; details: GST-tagged BAZ2B; for Array Heatmap signal (histone peptide microarray): sheet Array Heatmap, each array performed twice, total n = 4
Outline: as §1

[4] = system: TAF3; details: GST-tagged TAF3; for Array Heatmap signal (histone peptide microarray): sheet Array Heatmap, each array performed twice, total n = 4
Outline: as §1

[5] = system: DIDO1; details: GST-tagged DIDO1; for Array Heatmap signal (histone peptide microarray): sheet Array Heatmap, each array performed twice, total n = 4
Outline: as §1

[6] = system: ING2; details: GST-tagged ING2; for Array Heatmap signal (histone peptide microarray): sheet Array Heatmap, each array performed twice, total n = 4
Outline: as §1

[7] = system: MORC3 (CW); details: for Array Heatmap signal (histone peptide microarray): GST-tagged MORC3 (CW = CW-type Zn-finger), sheet Array Heatmap, each array performed twice, total n = 4
Outline: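 A peptide microarray holding 293 synthetic histone peptides with individual or combinatorial modifications was probed with each GST-PHD protein at 0.5 μM. Values represent mean intensity (±SD) from four replicates.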

[8] = system: KDM5B (3); details: GST-tagged KDM5B (3); for Array Heatmap signal (histone peptide microarray): sheet Array Heatmap, each array performed twice, total n = 4
Outline: as §1

[9] = system: BPTF (PB); details: for Array Heatmap signal (histone peptide microarray): GST-tagged BPTF (PB = PHD + Bromodomain), sheet Array Heatmap, each array performed twice, total n = 4
Outline: as §1

[10] = system: KDM5A (3); details: GST-tagged KDM5A (3); for Array Heatmap signal (histone peptide microarray): sheet Array Heatmap, each array performed twice, total n = 4
Outline: as §1

[11] = system: DPF2 (PPC2W2); details: for Array Heatmap signal (histone peptide microarray): GST-tagged DPF2 (PPC2W2 = Dual PHD + C2W2-type Zn-finger), sheet Array Heatmap, each array performed twice, total n = 4
Outline: as §1

[12] = system: ING4; details: GST-tagged ING4; for Array Heatmap signal (histone peptide microarray): sheet Array Heatmap, each array performed twice, total n = 4
Outline: as §1

[13] = system: SP140L; details: GST-tagged SP140L; for Array Heatmap signal (histone peptide microarray): sheet Array Heatmap, each array performed twice, total n = 4
Outline: as §1

[14] = system: ING1; details: GST-tagged ING1; for Array Heatmap signal (histone peptide microarray): sheet Array Heatmap, each array performed twice, total n = 4
Outline: as §1

[15] = system: ING3; details: GST-tagged ING3; for Array Heatmap signal (histone peptide microarray): sheet Array Heatmap, each array performed twice, total n = 4
Outline: as §1

[16] = system: CHD4 (PPCC); details: for Array Heatmap signal (histone peptide microarray): GST-tagged CHD4 (PPCC = Dual PHD + Dual Chromodomain), sheet Array Heatmap, each array performed twice, total n = 4
Outline: as §1

[17] = system: AIRE (PP); details: GST-tagged AIRE (PP); for Array Heatmap signal (histone peptide microarray): sheet Array Heatmap, each array performed twice, total n = 4
Outline: as §1

[18] = system: MLL5; details: GST-tagged MLL5; for Array Heatmap signal (histone peptide microarray): sheet Array Heatmap, each array performed twice, total n = 4
Outline: as §1

[19] = system: PHF13; details: GST-tagged PHF13; for Array Heatmap signal (histone peptide microarray): sheet Array Heatmap, each array performed twice, total n = 4
Outline: as §1

[20] = system: PHF8; details: GST-tagged PHF8; for Array Heatmap signal (histone peptide microarray): sheet Array Heatmap, each array performed twice, total n = 4
Outline: as §1

[21] = system: TRIM66 (PB); details: for Array Heatmap signal (histone peptide microarray): GST-tagged TRIM66 (PB = PHD + Bromodomain), sheet Array Heatmap, each array performed twice, total n = 4
Outline: as §1

[22] = system: PHF2; details: GST-tagged PHF2; for Array Heatmap signal (histone peptide microarray): sheet Array Heatmap, each array performed twice, total n = 4
Outline: as §1

[23] = system: CHD5 (PCC); details: for Array Heatmap signal (histone peptide microarray): GST-tagged CHD5 (PCC = PHD + Dual Chromodomain), sheet Array Heatmap, each array performed twice, total n = 4
Outline: as §1

[24] = system: PHF23; details: GST-tagged PHF23; for Array Heatmap signal (histone peptide microarray): sheet Array Heatmap, each array performed twice, total n = 4
Outline: as §1

[25] = system: KDM7A; details: GST-tagged KDM7A; for Array Heatmap signal (histone peptide microarray): sheet Array Heatmap, each array performed twice, total n = 4
Outline: as §1

[26] = system: CHD5 (PPCC); details: for Array Heatmap signal (histone peptide microarray): GST-tagged CHD5 (PPCC = Dual PHD + Dual Chromodomain), sheet Array Heatmap, each array performed twice, total n = 4
Outline: as §1

[27] = system: PHRF1 (RP); details: GST-tagged PHRF1 (RP); for Array Heatmap signal (histone peptide microarray): sheet Array Heatmap, each array performed twice, total n = 4
Outline: as §1

[28] = system: KDM4C (TTP); details: for Array Heatmap signal (histone peptide microarray): GST-tagged KDM4C (TTP = Tandem Tudor domain + PHD), sheet Array Heatmap, each array performed twice, total n = 4
Outline: as §1

[29] = system: RAG2; details: GST-tagged RAG2; for Array Heatmap signal (histone peptide microarray): sheet Array Heatmap, each array performed twice, total n = 4
Outline: as §1

[30] = system: KDM5A (1); details: GST-tagged KDM5A (1); for Array Heatmap signal (histone peptide microarray): sheet Array Heatmap, each array performed twice, total n = 4
Outline: as §1

[31] = system: KDM5B (1); details: GST-tagged KDM5B (1); for Array Heatmap signal (histone peptide microarray): sheet Array Heatmap, each array performed twice, total n = 4
Outline: as §1

[32] = sheet "Array Heatmap", arrays performed twice, total replicate number n = 4

Substance: H3K4me3 + K14ac: H3 1-20
- Array Heatmap signal (histone peptide microarray) [1]: 0.4155
- Array Heatmap signal (histone peptide microarray) [2]: 0.4275
- Array Heatmap signal (histone peptide microarray) [3]: 0.6127
- Array Heatmap signal (histone peptide microarray) [4]: 0.7363
- Array Heatmap signal (histone peptide microarray) [5]: 1
- Array Heatmap signal (histone peptide microarray) [6]: 0.9757
- Array Heatmap signal (histone peptide microarray) [7]: 0.8691
- Array Heatmap signal (histone peptide microarray) [8]: 0.7921
- Array Heatmap signal (histone peptide microarray) [9]: 0.8401
- Array Heatmap signal (histone peptide microarray) [10]: 0.8892
- Array Heatmap signal (histone peptide microarray) [11]: 0.7495
- Array Heatmap signal (histone peptide microarray) [12]: 0.6504
- Array Heatmap signal (histone peptide microarray) [13]: 0.3446
- Array Heatmap signal (histone peptide microarray) [14]: 0.9202
- Array Heatmap signal (histone peptide microarray) [15]: 0.9261
- Array Heatmap signal (histone peptide microarray) [16]: 0.6173
- Array Heatmap signal (histone peptide microarray) [17]: 0.3995
- Array Heatmap signal (histone peptide microarray) [18]: 0.8336
- Array Heatmap signal (histone peptide microarray) [19]: 0.8156
- Array Heatmap signal (histone peptide microarray) [20]: 0.6468
- Array Heatmap signal (histone peptide microarray) [21]: 0.6346
- Array Heatmap signal (histone peptide microarray) [22]: 0.9532
- Array Heatmap signal (histone peptide microarray) [23]: 0.7404
- Array Heatmap signal (histone peptide microarray) [24]: 0.8632
- Array Heatmap signal (histone peptide microarray) [25]: 0.4569
- Array Heatmap signal (histone peptide microarray) [26]: 0.5519
- Array Heatmap signal (histone peptide microarray) [27]: 0.6002
- Array Heatmap signal (histone peptide microarray) [28]: 0.599
- Array Heatmap signal (histone peptide microarray) [29]: 0.9484
- Array Heatmap signal (histone peptide microarray) [30]: 0.4609
- Array Heatmap signal (histone peptide microarray) [31]: 0.7346

Substance: H3K4me3 + K9ac + K18ac: H3 1-20
- Array Heatmap signal (histone peptide microarray) [1]: 0.4825
- Array Heatmap signal (histone peptide microarray) [2]: 0.4905
- Array Heatmap signal (histone peptide microarray) [3]: 0.5371
- Array Heatmap signal (histone peptide microarray) [4]: 0.7825
- Array Heatmap signal (histone peptide microarray) [5]: 0.9071
- Array Heatmap signal (histone peptide microarray) [6]: 0.8776
- Array Heatmap signal (histone peptide microarray) [7]: 0.8949
- Array Heatmap signal (histone peptide microarray) [8]: 0.9067
- Array Heatmap signal (histone peptide microarray) [9]: 0.7655
- Array Heatmap signal (histone peptide microarray) [10]: 0.919
- Array Heatmap signal (histone peptide microarray) [11]: 0.728
- Array Heatmap signal (histone peptide microarray) [12]: 0.6909
- Array Heatmap signal (histone peptide microarray) [13]: 0.3543
- Array Heatmap signal (histone peptide microarray) [14]: 0.8615
- Array Heatmap signal (histone peptide microarray) [15]: 0.8253
- Array Heatmap signal (histone peptide microarray) [16]: 0.5646
- Array Heatmap signal (histone peptide microarray) [17]: 0.5297
- Array Heatmap signal (histone peptide microarray) [18]: 0.9085
- Array Heatmap signal (histone peptide microarray) [19]: 0.8179
- Array Heatmap signal (histone peptide microarray) [20]: 1
- Array Heatmap signal (histone peptide microarray) [21]: 0.7372
- Array Heatmap signal (histone peptide microarray) [22]: 0.7127
- Array Heatmap signal (histone peptide microarray) [23]: 0.8455
- Array Heatmap signal (histone peptide microarray) [24]: 0.8424
- Array Heatmap signal (histone peptide microarray) [25]: 1
- Array Heatmap signal (histone peptide microarray) [26]: 0.6046
- Array Heatmap signal (histone peptide microarray) [27]: 0.6174
- Array Heatmap signal (histone peptide microarray) [28]: 0.7748
- Array Heatmap signal (histone peptide microarray) [29]: 0.8902
- Array Heatmap signal (histone peptide microarray) [30]: 0.5009
- Array Heatmap signal (histone peptide microarray) [31]: 0.7108

Substance: H3.3 15-34: H3.3 15-34
- Array Heatmap signal, PHF21A [1, 32]: 0.4988
- Array Heatmap signal, ING5 [2, 32]: 0.3926
- Array Heatmap signal, BAZ2B [3, 32]: 0.5105
- Array Heatmap signal, TAF3 [4, 32]: 0.298
- Array Heatmap signal, DIDO1 [5, 32]: 0.6133
- Array Heatmap signal, ING2 [6, 32]: 0.6004
- Array Heatmap signal, MORC3 (CW) ([7]; sheet "Array Heatmap", GST-tagged MORC3 (CW), arrays performed twice, total replicate number n = 4): 0.367
- Array Heatmap signal, KDM5B (3) [8, 32]: 0.5078
- Array Heatmap signal, BPTF (PB) ([9]; sheet "Array Heatmap", GST-tagged BPTF (PB), arrays performed twice, total replicate number n = 4): 0.3589
- Array Heatmap signal, KDM5A (3) [10, 32]: 0.4324
- Array Heatmap signal, DPF2 (PPC2W2) ([11]; sheet "Array Heatmap", GST-tagged DPF2 (PPC2W2), arrays performed twice, total replicate number n = 4): 0.6732
- Array Heatmap signal, ING4 [12, 32]: 0.4948
- Array Heatmap signal, SP140L [13, 32]: 0.3703
- Array Heatmap signal, ING1 [14, 32]: 0.5055
- Array Heatmap signal, ING3 [15, 32]: 0.4684
- Array Heatmap signal, CHD4 (PPCC) ([16]; sheet "Array Heatmap", GST-tagged CHD4 (PPCC), arrays performed twice, total replicate number n = 4): 0.5508
- Array Heatmap signal, AIRE (PP) [17, 32]: 0.5768
- Array Heatmap signal, MLL5 [18, 32]: 0.5484
- Array Heatmap signal, PHF13 [19, 32]: 0.6359
- Array Heatmap signal, PHF8 [20, 32]: 0.386
- Array Heatmap signal, TRIM66 (PB) ([21]; sheet "Array Heatmap", GST-tagged TRIM66 (PB), arrays performed twice, total replicate number n = 4): 0.563
- Array Heatmap signal, PHF2 [22, 32]: 0.4208
- Array Heatmap signal, CHD5 (PCC) ([23]; sheet "Array Heatmap", GST-tagged CHD5 (PCC), arrays performed twice, total replicate number n = 4): 0.807
- Array Heatmap signal, PHF23 [24, 32]: 0.5121
- Array Heatmap signal, KDM7A [25, 32]: 0.5038
- Array Heatmap signal, CHD5 (PPCC) ([26]; sheet "Array Heatmap", GST-tagged CHD5 (PPCC), arrays performed twice, total replicate number n = 4): 0.5888
- Array Heatmap signal, PHRF1 (RP) [27, 32]: 0.4107
- Array Heatmap signal, KDM4C (TTP) ([28]; sheet "Array Heatmap", GST-tagged KDM4C (TTP), arrays performed twice, total replicate number n = 4): 0.5726
- Array Heatmap signal, RAG2 [29, 32]: 0.2498
- Array Heatmap signal, KDM5A (1) [30, 32]: 0.5272
- Array Heatmap signal, KDM5B (1) [31, 32]: 0.7186
